Experimental data: patent US12304894B2, “Derivatives of adamantyl oxadiazoles and pharmaceutically acceptable solvates, hydrates and salts thereof, pharmaceutical composition comprising same, synthesis method, suitable for use as effective and selective inhibitors of the reductase activity of the enzyme 11-beta dehydrogenase type 1 …” (PONTIFICIA UNIVERSIDAD CATOLICA DE CHILE, priority 2019, dated 2025)

Legend:
Assay type in all cases: biochemical
[1] = biological target: T1, recombinant 11β-HSD1 enzyme (Homo sapiens (Human), UniProt P28845); assay: 11β-HSD1 reductase activity (HTRF Cortisol Kit); details: 266 nM cortisone, 333 μM NADPH, read-out: 11b-HSD1 reductase (HTRF) IC50
T1 sequence (P28845 whole entry): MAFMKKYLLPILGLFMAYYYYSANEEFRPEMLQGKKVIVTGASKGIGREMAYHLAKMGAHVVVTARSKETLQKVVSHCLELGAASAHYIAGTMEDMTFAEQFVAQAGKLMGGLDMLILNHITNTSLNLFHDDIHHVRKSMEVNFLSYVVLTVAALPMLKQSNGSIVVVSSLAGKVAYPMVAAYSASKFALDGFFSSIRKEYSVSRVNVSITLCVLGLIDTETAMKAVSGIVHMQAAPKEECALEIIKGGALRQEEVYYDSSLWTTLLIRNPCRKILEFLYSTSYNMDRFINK
Protocol: Determination of 11β-HSD1 Reductase Activity
First, stock solutions of the compounds were prepared in DMSO at a concentration of […], of which serial dilutions were made in order to determine the efficacy curve.
As for the recombinant 11β-HSD1 enzyme (Cayman Chemical, MI, USA; Item No. 10007815), it was prepared in Tris Buffer 20 mM EDTA 5 mM pH 6.0 (Tris buffer) at different dilutions.
Initially, the enzyme concentration to be used in the assays in order to evaluate the biological activity of the compounds was determined. The Cortisol Kit product (Cisbio, MA, USA; Cat no. 62CRTPEG) was used for that purpose.
The protocol consisted of preparing the reaction buffer, adding 266 nM cortisone and 333 μM NADPH in Tris buffer. Then, this reaction buffer is added to the wells of the HTRF (Homogeneous Time Resolved Fluorescence) reaction plate together with the enzyme in a 4:1 ratio respectively, and incubated for 2 hours at 37° C. In the case of the control wells, two wells with Tris buffer were added, without compounds.
After the incubation time, the reagents of the Cortisol kit were added, Cortisol d2 and Cortisol cryptate in sample ratio, Cortisol d2 and cortisol cryptate 2:1:1, in a quantity according to the size of the well as indicated by the supplier (for the negative control of the kit, the cortisol d2 is replaced by the kit's reconstitution buffer). This reaction is incubated for 1 hour at room temperature in order to later read the fluorescence at 665 and 620 nm.
Once the enzyme concentration to be used has been determined, the cortisol kit protocol is continued to determine the efficacy curve for the compounds. As previously done, a plate for HTRF was prepared adding to each well of the reaction buffer, the recombinant 11β-HSD1 enzyme and the compounds to be assayed in a 3:1:1 ratio, respectively. The plate was subsequently incubated at 37° C. for 2 hours.
After the incubation time, the reagents of the cortisol kit, cortisol d2 and cortisol cryptate, are added, and were incubated again for 1 hour at room temperature. Finally, the fluorescence of each well was determined at 665 and 620 nm.

[2] = biological target: T1, recombinant 11β-HSD1 enzyme; assay: 11β-HSD1 oxidase activity (HTRF Cortisol Kit); details: for 11b-HSD1 oxidase (activ rem %) 100 nM: remaining activity at 100 nM compound; for 11b-HSD1 oxidase (activ rem %) 100 uM: remaining activity at 100 uM compound
Protocol: Determination of 11β-HSD1 Oxidase Activity
The Cortisol Kit (Cisbio) product was used for that purpose.
For the analysis, the compounds are reconstituted in DMSO in a stock of 10 mM concentration, from which serial dilutions were prepared for the efficiency curve.
The recombinant 11β-HSD1 enzyme dilutions were prepared in 20 mM Tris Buffer 5 mM EDTA pH 6.0 (Tris buffer).
Initially, the enzyme concentration to be used was determined. For this purpose, a plate for HRTF was prepared with Tris buffer with 100 nM cortisol and 200 μM NADP+, including in the wells of the plate for HTRF together with the enzyme in a 4:1 ratio, respectively, and incubated for 2 hours at 37° C. After this time, the reagents of the Cortisol kit, Cortisol d2 and Cortisol cryptate in sample ratio, Cortisol d2 and cortisol cryptate 2:1:1 were added, incubating this new reaction for 1 hour at room temperature. Subsequently, the fluorescence was determined at 665 and 620 nm.
An HRTF plate was again prepared, where the reaction buffer, the recombinant 11β-HSD1 enzyme and the compound were added in each well in a 3:1:1 ratio, respectively. The plate was incubated at 37° C. for 2 hours. After the incubation time, the reagents of the cortisol kit, cortisol d2 and cortisol cryptate, were added as indicated above. They were then incubated at room temperature for 1 hour to finally read the fluorescence at 665 and 620 nm.

11β-HSD2 = 11β-HSD2 oxidase activity in human hepatic microsomes (HTRF Cortisol Kit); details: remaining activity at 100 nM compound
Protocol: Determination of 11β-HSD2 Oxidase Activity
The concentration of cortisone produced in the reaction, with and without the compounds, was determined using the Cortisol Kit (Cisbio) product in order to evaluate the 11β-HSD2 oxidase activity.
As in the previous assays, the compounds are reconstituted in DMSO to 10 mM stock, in order to subsequently make serial dilutions to determine the efficacy curve.
To perform the assay, the HTRF plate was prepared containing Tris buffer, 100 nM cortisol and 200 μM NAD^+. Enzyme is added to the corresponding wells in a 4:1 ratio, respectively, and incubated for 2 hours at 37° C. For the kit control, two wells are added only with Tris buffer.
After the incubation time, the reagents of the Cortisol kit, Cortisol d2 and Cortisol cryptate, in a sample ratio, Cortisol d2 and cortisol cryptate 2:1:1 are added. For the negative control, cortisol d2 was replaced in some wells by the kit's reconstitution buffer. The plate was incubated for 1 hour at room temperature to later read at 665 and 620 nm.
For this purpose, the reaction buffer was prepared and subsequently, in a plate for HTRF, the reaction buffer, the microsomes in a concentration of 5 mg/mL and the compound in a ratio of 3:1:1, respectively, were added to each well. In the case of reaction controls, the reaction buffer without cortisol and without compound is included for the negative control. For the positive control, no compound is added, and for the kit controls, only the reaction buffer is added to the negative and positive control wells.
After incubating the plate for 2 hours, the reagents of the cortisol kit, cortisol d2 and cortisol cryptate, are added to the corresponding wells as indicated above. They are then incubated at room temperature for 1 hour to finally read the 665 and 620 nm fluorescence.

SMILES	IC50 [1]	11b-HSD1 oxidase (activ rem %) 100 nM [2]	11b-HSD1 oxidase (activ rem %) 100 uM [2]	11b-HSD2 oxidase (activ rem %) Microcosms 100 nM (11β-HSD2)
c1ccc(CCc2nc(C34CC5CC(CC(C5)C3)C4)no2)cc1 [BD-31, 1-phenyl-2-(3-adamantyl-1,2,4-oxadiazol-5-yl)ethane]	147 nM	86.1%	86.20%	55.4%
COc1ccc(CCc2nc(C34CC5CC(CC(C5)C3)C4)no2)cc1 [BD-32, 1-(4-methoxyphenyl)-2-(3-adamantyl-1,2,4-oxadiazol-5-yl)ethane]	95.4 nM	104.1%	62.7%	60.0%
Clc1ccc(CCc2nc(C34CC5CC(CC(C5)C3)C4)no2)cc1 [BD-33, 1-(4-chlorophenyl)-2-(3-adamantyl-1,2,4-oxadiazol-5-yl)ethane]	9.2 nM	107.0%	75.4%	59.4%
Fc1ccc(CCc2nc(C34CC5CC(CC(C5)C3)C4)no2)cc1 [BD-34, 1-(4-fluorophenyl)-2-(3-adamantyl-1,2,4-oxadiazol-5-yl)ethane]	104 nM	109.0%	77.2%	68.8%
Brc1ccc(CCc2nc(C34CC5CC(CC(C5)C3)C4)no2)cc1 [BD-35, 1-(4-bromophenyl)-2-(3-adamantyl-1,2,4-oxadiazol-5-yl)ethane]	9.9 nM	91.3%	104.0%	79.5%
Cc1ccc(CCc2nc(C34CC5CC(CC(C5)C3)C4)no2)cc1 [BD-36, 1-(4-methylphenyl)-2-(3-adamantyl-1,2,4-oxadiazol-5-yl)ethane]	102 nM	110.3%	95.3%	40.1%
Oc1ccc(CCc2nc(C34CC5CC(CC(C5)C3)C4)no2)cc1 [BD-37, 1-(4-hydroxyphenyl)-2-(3-adamantyl-1,2,4-oxadiazol-5-yl)ethane]	1.1 nM	109.6%	88.1%	58.3%
COc1cccc(CCc2nc(C34CC5CC(CC(C5)C3)C4)no2)c1 [BD-38, 1-(3-methoxyphenyl)-2-(3-adamantyl-1,2,4-oxadiazol-5-yl)ethane]	102 nM	88.1%	100.5%	61.9%
c1cc(CCc2nc(C34CC5CC(CC(C5)C3)C4)no2)ccn1 [BD-39, 1-(4-pyridyl)-2-(3-adamantyl-1,2,4-oxadiazol-5-yl)ethane]	97 nM	89.4%	75.3%	59.2%
CC(C)(C)c1ccc(CCc2nc(C34CC5CC(CC(C5)C3)C4)no2)cc1 [BD-41, 1-(4-tert-butylphenyl)-2-(3-adamantyl-1,2,4-oxadiazol-5-yl)ethane]	102 nM	85.9%	86.1%	49.7%
Fc1cccc(CCc2nc(C34CC5CC(CC(C5)C3)C4)no2)c1 [BD-42, 1-(3-fluorophenyl)-2-(3-adamantyl-1,2,4-oxadiazol-5-yl)ethane]	92 nM	83.0%	89.8%	59.2%
c1ccc(CCc2nc(C34CC5CC(CC(C5)C3)C4)no2)nc1 [BD-45, 1-(2-pyridyl)-2-(3-adamantyl-1,2,4-oxadiazol-5-yl)ethane]	1.1 nM	97.4%		70.2%
O=[N+]([O-])c1ccc(CCc2nc(C34CC5CC(CC(C5)C3)C4)no2)cc1 [BD-46, 1-(4-nitrophenyl)-2-(3-adamantyl-1,2,4-oxadiazol-5-yl)ethane]	24 nM	104.6%	65.4%	62.0%
